Measurements from patent US20210093582A1, “COMPOSITIONS FOR REDUCING TRIMETHYLAMINE-N-OXIDE AND RELATED THERAPEUTIC APPLICATIONS” (priority 2019, published 2021).

Legend:
Type in all cases: in vivo, C57BL/6 (B6) mice
FMO3 = experiment: Hepatic FMO3 mRNA expression by RT-qPCR; conditions: female B6 mice, 6 weeks; normalized to GAPDH
Protocol: (§1) Six-week-old female C57BL/6 (B6) mice were purchased from BioLASCO (Taipei, Taiwan) and were acclimatized for 1 week. Mice were fed ad libitum with experimental diets, LabDiet Rodent 5001. The animal use protocol listed below has been reviewed and approved by the Institutional Animal Care and Use Committee (NTU105-EL-00115). In the experiment, mice were randomly divided into four groups: normal diet, 1.3% carnitine water, 1.3% carnitine water with 0.05% pterostilbene diet (around 250 mg/kg/day), and 1.3% carnitine water with antibiotic cocktail for 6 weeks. Mice received a cocktail of oral antibiotics (vancomycin 500 mg/L, metronidazole 1 g/L, neomycin 1 g/L, and ampicillin 1 g/L in drinking water) for 6 weeks. […] At the end of the six-week study, mice were euthanized by CO2 asphyxiation.
(§2) Hepatic and aortic RNA was extracted using TRIzol reagent. Phase separation was performed by adding 200 μl chloroform/1 mlTRIzol. […]
(§3) Quality of RNA and RNA concentrations were then quantified using NanoDrop 1000 spectrophotometer. […]
(§4) mRNA levels were determined by quantitative real-time PCR usingStepOnePlus Real-Time PCR system and SYBR Green master mix as compared to constitutively expressed gene (GAPDH) using the relative quantification method (ΔΔCt), Primer sequences for SYBR Green reactions were designed and synthesized by Mission Biotech.

[1] = Plasma TMAO level by LC-MS/MS; conditions: female B6 mice, 1.3% carnitine water, 6 weeks
Protocol: as §1
LC-MS/MS was used to quantify plasma L-carnitine and TMAO in positive MRM mode, with the instrument water UPLC system (Acquity, Waters, Mildford, Mass., USA) and triple quadrupole mass spectrometer (TQS, Waters Micromass, Manchester, UK). […]
The MS parameters were set as follow: 100° C. for the source temperature, 650° C. for the desolvation temperature, 2 L/h for the cone gas flow, 600 L/h for the desolvation gas flow and 1500 V for the capillary voltage. Cone voltage was set a 10 V. Concentrations of each analyte in samples were determined by calibration curves.

E-selectin = experiment: Aortic vascular inflammation gene expression by qPCR (E-selectin); conditions: female B6 mice, 1.3% carnitine water, 6 weeks; mRNA normalized to GAPDH
Protocol: as §1, §2, §3, §4

TNF-α = experiment: Aortic vascular inflammation gene expression by qPCR (TNF-α); conditions: female B6 mice, 1.3% carnitine water, 6 weeks; mRNA normalized to GAPDH
Protocol: as §1, §2, §3, §4

cecal microbiota = experiment: Cecal microbiota composition by 16S rRNA gene sequencing; conditions: mouse cecum, 6 weeks
Protocol: as §1
Microbial community composition was assessed by pyrosequencing 16S rRNA genes derived from mouse cecum (n=3 for each group). Total DNA was isolated and purified using InnuSPEED Stool DNA kit according to the manufacturer's instructions. The quality of DNA samples was assessed by NanoDrop 1000 spectrophotometer. DNA samples were sent to Biotools Co., Ltd.for 16S rRNA gene amplification, sequence library construction and sequencing. […] The library DNA was sequenced by IlluminaHiSeq2500 platform, and paired-end reads (250 bp) were generated.

VCAM-1 = experiment: Aortic vascular inflammation gene expression by qPCR (VCAM-1); conditions: female B6 mice, 1.3% carnitine water, 6 weeks; mRNA normalized to GAPDH
Protocol: as §1, §2, §3, §4

**Q.** What does the source list for `C[N+](C)(C)C[C@H](O)CC(=O)[O-]` [Carnitine, L-carnitine]?
**A.** hepatic FMO3 mRNA expression level (FMO3): approximately three-fold increase; increase in circulating TMAO level compared to ND group [1]: up to 8 folds; expression of E-selectin in aortas (E-selectin): significantly enhanced; expression of TNF-α in aortas (TNF-α): significantly enhanced; Erysipelotrichia (Turibacter) proportion / relative abundance (cecal microbiota): increase; expression of VCAM-1 in aortas (VCAM-1): significantly enhanced
